The source of these data is patent US12139473B2, “Substituted-N-heteroaryl compounds and uses thereof” (Bionomics Limited, priority 2019, dated 2024).

The assay has as its target T1, hKv3.1 (Homo sapiens, UniProt P48547).
T1 construct: expressed in transfected cells
T1 sequence (P48547 1-511): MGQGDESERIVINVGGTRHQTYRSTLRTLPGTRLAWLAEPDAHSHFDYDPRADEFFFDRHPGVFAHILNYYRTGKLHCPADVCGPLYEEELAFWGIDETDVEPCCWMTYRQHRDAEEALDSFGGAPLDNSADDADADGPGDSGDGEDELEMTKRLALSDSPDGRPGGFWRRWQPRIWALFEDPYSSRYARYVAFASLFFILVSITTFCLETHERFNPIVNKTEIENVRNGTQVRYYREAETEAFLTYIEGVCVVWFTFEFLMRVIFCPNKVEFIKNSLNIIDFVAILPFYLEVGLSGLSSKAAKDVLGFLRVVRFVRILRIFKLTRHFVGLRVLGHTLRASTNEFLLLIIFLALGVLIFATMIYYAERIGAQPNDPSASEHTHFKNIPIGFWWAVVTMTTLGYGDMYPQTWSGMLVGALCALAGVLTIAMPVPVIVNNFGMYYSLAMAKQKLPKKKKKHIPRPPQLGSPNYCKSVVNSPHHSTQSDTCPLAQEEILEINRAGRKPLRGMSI
Description: Automated patch clamp electrophysiology (Patchliner), CHO/Kv3.1 cells. The settings on record: 10 μM compound, hKv3.1 in CHO-K1, whole-cell; for Kv3.1 Activity at 10 μM Potentiation (%): peak current at voltage step of −10 mV vs vehicle (0.33% DMSO); for Kv3.1 Activity at 10 μM Voltage Shift (mV): voltage shift of the IV curve at V1/2. The format is cell-based. As for the experimental part:
hKv3.1, hKv3.2, hKv3.3, and hKv3.4 were stably expressed in CHO-K1 (Chinese hamster ovary) cells and kept under constant antibiotic selection. For in vitro assays, cells were maintained in appropriate growth medium at 37° C. and 5% CO2 in a humidified incubator.
hKv3.X expressing cells were plated in T-25 flasks for 3-4 days at 37° C. (no selection antibiotic) prior to use and grown to 80% confluence. Cells were washed twice with PBS (calcium and magnesium free) and detached with a 5-minute treatment at 37° C. with 2-3 mls of Accutase®. Cells were collected, and flask was washed in CHO-SFM II media (Life Technologies Gibco), centrifuged for 2 minutes at ˜110×g and resuspended to obtain a single cell suspension of ˜2-3×10^6 cells/ml.
The intracellular solution contained the following (in mM): KCl 50, NaCl 10, KF 60, EGTA 20, HEPES 10, adjusted to pH 7.2 with KOH and an osmolarity of 285 mOsmol. Seal enhancer was purchased from Nanion (80 mM NaCl, 3 mM KCl, 10 mM MgCl2, 35 mM CaCl2), 10 mM HEPES, pH7.4, 298 mOsmol. The external solution contained (in mM): NaCl 140, KCl 4, CaCl2) 2, MgCl2 1, HEPES 10, Glucose 5, adjusted to pH7.4 and an osmolarity of 298 mOsmol.
All compounds were initially tested at 10 uM at a final DMSO concentration of 0.33%. Compounds were dissolved in dimethylsulfoxide (DMSO) at a stock concentration of 30 mM. The compound was further diluted 1:10 to give a stock concentration of 3 mM in DMSO. The final assay solution was diluted 1:300 in External solution to give a final concentration of 10 uM. For the DMSO Control Buffer 30 uL of DMSO was added to 10 mL buffer.
All electrophysiological recordings were performed at ambient temperature (21-23° C.) using automated patch clamp (Patchliner, Nanion Technologies GmbH) in the whole-cell configuration.
Cell membrane potentials were held at −80 mV, and currents were evoked by voltage steps (1000 ms duration) from −60 to +60 mV in 10 mV increments. This was performed first with vehicle (0.33% DMSO) and then with 10 uM compound, after a 3-minute incubation period. Data was taken from 4 cells per assay.
The recordings were analysed and selected using peak current amplitude (>100 pA at the −10 mV voltage step) in the absence of compound to eliminate unsuitable cells from analysis. Peak current amplitude was measured and recorded for each voltage step and data was normalised to the maximum current at +60 mV. The normalised Kv3.x currents following addition of the compound were then compared with the currents recorded prior to compound addition (vehicle control). Positive modulation was determined as % potentiation at the voltage step of −10 mV=[current (cmpd)/current (veh)]*100−100. % potentiation≥50% was considered acceptable. In addition, voltage shift of the IV curve at V1/2 was measured. V1/2 of ≥−5 mV was also considered acceptable. IV curves were plotted in GraphPad Prism (software version 6.0) and fitted with a Boltzmann equation, where V1/2 is the voltage at half-maximal activation.
For orientation: Patch clamp records ionic current or voltage across a cell membrane.

With `CC[C@@]1(C)NC(=O)N(c2cc(Oc3ccc(C)c(OC)c3)ncn2)C1=O` [Example 2, (5R)-5-ethyl-3-[6-(3-methoxy-4-methyl-phenoxy)pyrimidin-4-yl]-5-methyl-imidazolidine-2,4-dione], the “Kv3.1 Activity at 10 μM Potentiation (%)” value is reported as 16% and the “Kv3.1 Activity at 10 μM Voltage Shift (mV)” value is −1.9 mV.

`CC[C@]1(C)NC(=O)N(c2cc(Oc3ccc(C)c(OC)c3)ncn2)C1=O` [Example 3, (5S)-5-ethyl-3-[6-(3-methoxy-4-methyl-phenoxy)pyrimidin-4-yl]-5-methyl-imidazolidine-2,4-dione]: the “Kv3.1 Activity at 10 μM Potentiation (%)” value came out at 34% and the “Kv3.1 Activity at 10 μM Voltage Shift (mV)” value was −2.1 mV.

For `CCC1(CC)NC(=O)N(c2cc(Oc3ccc(C)c(OC)c3)ncn2)C1=O` [Example 4, 3-[6-(3-methoxy-4-methyl-phenoxy)pyrimidin-4-yl]-5,5-diethyl-imidazolidine-2,4-dione], the “Kv3.1 Activity at 10 μM Potentiation (%)” value came out at 25% and the “Kv3.1 Activity at 10 μM Voltage Shift (mV)” value is listed as −0.9 mV.

Consider `COc1cc(Oc2cc(N3C(=O)NC4(CCC4)C3=O)ncn2)ccc1C` [Example 5, 7-[6-(3-methoxy-4-methyl-phenoxy)pyrimidin-4-yl]-5,7-diazaspiro[3.4]octane-6,8-dione], for which the “Kv3.1 Activity at 10 μM Potentiation (%)” value is on record as 35% and the “Kv3.1 Activity at 10 μM Voltage Shift (mV)” value was −3.2 mV.

For `COc1cc(Oc2cc(N3C(=O)N[C@](C)(C(C)C)C3=O)ncn2)ccc1C` [Example 8, (5R)-5-isopropyl-3-[6-(3-methoxy-4-methyl-phenoxy)pyrimidin-4-yl]-5-methyl-imidazolidine-2,4-dione], the “Kv3.1 Activity at 10 μM Potentiation (%)” value was 48% and the “Kv3.1 Activity at 10 μM Voltage Shift (mV)” value is reported as −3.1 mV.

For the compound `COc1ccccc1Oc1cc(N2C(=O)NC(C)(C)C2=O)ncn1` [Example 9, 3-[6-(2-methoxyphenoxy)pyrimidin-4-yl]-5,5-dimethyl-imidazolidine-2,4-dione], the “Kv3.1 Activity at 10 μM Potentiation (%)” value worked out at 22% and the “Kv3.1 Activity at 10 μM Voltage Shift (mV)” value was −2.2 mV.

For the compound `COc1cccc(Oc2cc(N3C(=O)NC(C)(C)C3=O)ncn2)c1` [Example 10, 3-[6-(3-methoxyphenoxy)pyrimidin-4-yl]-5,5-dimethyl-imidazolidine-2,4-dione], the “Kv3.1 Activity at 10 μM Potentiation (%)” value amounted to 3% and the “Kv3.1 Activity at 10 μM Voltage Shift (mV)” value is given as “+0.4 mV”.

Consider `COc1ccc(Oc2cc(N3C(=O)NC(C)(C)C3=O)ncn2)cc1` [Example 11, 3-[6-(4-methoxyphenoxy)pyrimidin-4-yl]-5,5-dimethyl-imidazolidine-2,4-dione], for which the “Kv3.1 Activity at 10 μM Potentiation (%)” value was found to be 8% and the “Kv3.1 Activity at 10 μM Voltage Shift (mV)” value is listed as −1.3 mV.

With `COc1ccc(Oc2cc(N3C(=O)NC(C)(C)C3=O)ncn2)cc1F` [Example 12, 3-[6-(3-fluoro-4-methoxy-phenoxy)pyrimidin-4-yl]-5,5-dimethyl-imidazolidine-2,4-dione], the “Kv3.1 Activity at 10 μM Potentiation (%)” value is 13% and the “Kv3.1 Activity at 10 μM Voltage Shift (mV)” value is given as −0.3 mV.

`COc1cc(C)cc(Oc2cc(N3C(=O)NC(C)(C)C3=O)ncn2)c1` [Example 17, 3-[6-(3-methyl-5-methoxy-phenoxy)pyrimidin-4-yl]-5,5-dimethyl-imidazolidine-2,4-dione]: the “Kv3.1 Activity at 10 μM Potentiation (%)” value came to 7% and the “Kv3.1 Activity at 10 μM Voltage Shift (mV)” value is reported as −0.2 mV.

On to `COc1ccc(C)c(Oc2cc(N3C(=O)NC(C)(C)C3=O)ncn2)c1` [Example 18, 3-[6-(2-methyl-5-methoxy-phenoxy)pyrimidin-4-yl]-5,5-dimethyl-imidazolidine-2,4-dione], for which the “Kv3.1 Activity at 10 μM Potentiation (%)” value is listed as 53% and the “Kv3.1 Activity at 10 μM Voltage Shift (mV)” value is reported as −2.7 mV.

Regarding `COc1c(C)cccc1Oc1cc(N2C(=O)NC(C)(C)C2=O)ncn1` [Example 19, 3-[6-(2-methoxy-3-methyl-phenoxy)pyrimidin-4-yl]-5,5-dimethyl-imidazolidine-2,4-dione], the “Kv3.1 Activity at 10 μM Potentiation (%)” value was 15% and the “Kv3.1 Activity at 10 μM Voltage Shift (mV)” value was −1.7 mV.

Consider `COc1ccc(Oc2cc(N3C(=O)NC(C)(C)C3=O)ncn2)cc1C` [Example 20, 3-[6-(3-methyl-4-methoxy-phenoxy)pyrimidin-4-yl]-5,5-dimethyl-imidazolidine-2,4-dione], for which the “Kv3.1 Activity at 10 μM Potentiation (%)” value was 37% and the “Kv3.1 Activity at 10 μM Voltage Shift (mV)” value is −3.3 mV.

As for `COc1cc(C)ccc1Oc1cc(N2C(=O)NC(C)(C)C2=O)ncn1` [Example 21, 3-[6-(2-methoxy-4-methyl-phenoxy)pyrimidin-4-yl]-5,5-dimethyl-imidazolidine-2,4-dione], the “Kv3.1 Activity at 10 μM Potentiation (%)” value was determined as 29% and the “Kv3.1 Activity at 10 μM Voltage Shift (mV)” value was −1.4 mV.

In the case of `Cc1ccc(Oc2cc(N3C(=O)NC(C)(C)C3=O)ncn2)cc1C#N` [Example 22, 5-[6-(4,4-dimethyl-2,5-dioxo-imidazolidin-1-yl)pyrimidin-4-yl]oxy-2-methyl-benzonitrile], the “Kv3.1 Activity at 10 μM Potentiation (%)” value worked out at 31% and the “Kv3.1 Activity at 10 μM Voltage Shift (mV)” value is listed as −2.3 mV.

Consider `CC1(C)NC(=O)N(c2cc(Oc3cccnc3)ncn2)C1=O` [Example 23, 5,5-dimethyl-3-[6-(3-pyridyloxy)pyrimidin-4-yl]imidazolidine-2,4-dione], for which the “Kv3.1 Activity at 10 μM Potentiation (%)” value turned out to be 28% and the “Kv3.1 Activity at 10 μM Voltage Shift (mV)” value is on record as −0.9 mV.

As for `Cc1ccc(Oc2cc(N3C(=O)NC(C)(C)C3=O)ncn2)cn1` [Example 24, 5,5-dimethyl-3-[6-[(6-methyl-3-pyridyl)oxy]pyrimidin-4-yl]imidazolidine-2,4-dione], the “Kv3.1 Activity at 10 μM Potentiation (%)” value was 33% and the “Kv3.1 Activity at 10 μM Voltage Shift (mV)” value is −4.0 mV.

As for `COc1cncc(Oc2cc(N3C(=O)NC(C)(C)C3=O)ncn2)c1` [Example 25, 5,5-dimethyl-3-[6-[(5-methoxy-3-pyridyl)oxy]pyrimidin-4-yl]imidazolidine-2,4-dione], the “Kv3.1 Activity at 10 μM Potentiation (%)” value came to 6% and the “Kv3.1 Activity at 10 μM Voltage Shift (mV)” value was −0.1 mV.

Regarding `Cc1ccccc1Oc1cc(N2C(=O)NC(C)(C)C2=O)ncn1` [Example 26, 3-[6-(2-methylphenoxy)pyrimidin-4-yl]-5,5-dimethyl-imidazolidine-2,4-dione], the “Kv3.1 Activity at 10 μM Potentiation (%)” value is listed as 17% and the “Kv3.1 Activity at 10 μM Voltage Shift (mV)” value is −2.2 mV.

Regarding `Cc1cccc(Oc2cc(N3C(=O)NC(C)(C)C3=O)ncn2)c1` [Example 27, 3-[6-(3-methylphenoxy)pyrimidin-4-yl]-5,5-dimethyl-imidazolidine-2,4-dione], the “Kv3.1 Activity at 10 μM Potentiation (%)” value is given as −17% and the “Kv3.1 Activity at 10 μM Voltage Shift (mV)” value is given as “+2.11 mV”.

Regarding `Cc1ccc(Oc2cc(N3C(=O)NC(C)(C)C3=O)ncn2)cc1` [Example 28, 3-[6-(4-methylphenoxy)pyrimidin-4-yl]-5,5-dimethyl-imidazolidine-2,4-dione], the “Kv3.1 Activity at 10 μM Potentiation (%)” value was 3% and the “Kv3.1 Activity at 10 μM Voltage Shift (mV)” value was −1.1 mV.

As to `Cc1ccc(Oc2cc(N3C(=O)NC(C)(C)C3=O)ncn2)cc1C` [Example 29, 3-[6-(3,4-dimethylphenoxy)pyrimidin-4-yl]-5,5-dimethyl-imidazolidine-2,4-dione], the “Kv3.1 Activity at 10 μM Potentiation (%)” value amounted to 10% and the “Kv3.1 Activity at 10 μM Voltage Shift (mV)” value is −1.6 mV.
